According to the supplement of paper PMC5722580:

Tests used:
[1] = system: KAI3; experiment: drug sensitivity score (viability inhibition); higher = more sensitive; settings: 72 h; IL2 2.5 ng/ml
Description: (§1)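 NK-cell leukemia/lymphoma cell lines (3,000 cells/well) were cultured with IL2 2.5 ng/ml in 384-well drug plates (5-8 concentrations over a 10,000-fold range) for 72 h at 37 C; viability was read with CellTiter-Glo. DSS is a normalised area under the dose-response curve; the experiment was repeated twice.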

[2] = system: KHYG-1; experiment: as above; settings: 72 h; IL2 2.5 ng/ml
Description: as §1

[3] = system: NK-92; experiment: as above; settings: 72 h; IL2 2.5 ng/ml
Description: as §1

[4] = system: NK-YS; experiment: as above; settings: 72 h; IL2 2.5 ng/ml
Description: as §1

[5] = system: NKL; experiment: as above; settings: 72 h; IL2 2.5 ng/ml
Description: as §1

[6] = system: SNK6; experiment: as above; settings: 72 h; IL2 2.5 ng/ml
Description: as §1

[7] = system: YT; experiment: as above; settings: 72 h; IL2 2.5 ng/ml
Description: as §1

[8] = system: HEK293-SIE STAT3 WT; experiment: drug sensitivity score (inhibition of STAT3 luciferase reporter); higher = stronger inhibition; settings: 6 h; STAT3: WT; IL6 100 ng/ml
Description: (§2)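 HEK293 cells with a STAT3-inducible (SIE) luciferase reporter, stably expressing WT STAT3 (IL6 100 ng/ml) or Y640F STAT3 (no IL6), were incubated 6 h with drugs in 384-well plates (5-8 concentrations over a 10,000-fold range); luciferase was read with ONE-Glo. DSS is a normalised area under the dose-response curve; values are the mean of two experiments.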

[9] = system: HEK293-SIE STAT3 Y640F; experiment: as above; settings: 6 h; IL6 0 ng/ml
Description: as §2

With `CCNC(=O)c1noc(-c2cc(C(C)C)c(O)cc2O)c1-c1ccc(CN2CCOCC2)cc1` [Luminespib] the drug sensitivity score [1] was 25.6 DSS, the drug sensitivity score [2] was 24 DSS and the drug sensitivity score [3] was 27.4 DSS. For the same compound, the drug sensitivity score [4] was 26.9 DSS, the drug sensitivity score [5] was 29.1 DSS and the drug sensitivity score [6] was 19.6 DSS. It also gave a drug sensitivity score [7] of 18.6 DSS, a drug sensitivity score [8] of 16.3 DSS and a drug sensitivity score [9] of 12.8 DSS.
For `C=CCn1c(=O)c2cnc(Nc3ccc(N4CCN(C)CC4)cc3)nc2n1-c1cccc(C(C)(C)O)n1` [MK1775], the drug sensitivity score [1] was 19.9 DSS, the drug sensitivity score [2] was 24.5 DSS and the drug sensitivity score [3] was 23 DSS. It also gave a drug sensitivity score [4] of 20.5 DSS, a drug sensitivity score [5] of 22.5 DSS and a drug sensitivity score [6] of 19.7 DSS. For the same compound, the drug sensitivity score [7] was 19.8 DSS, the drug sensitivity score [8] was 9.88 DSS and the drug sensitivity score [9] was 8.87 DSS.
For `NC1(c2ccc(-c3nc4ccn5c(=O)[nH]nc5c4cc3-c3ccccc3)cc2)CCC1` [MK-2206], the drug sensitivity score [1] was 6.43 DSS, the drug sensitivity score [2] was 4.1 DSS and the drug sensitivity score [3] was 6.29 DSS. For the same compound, the drug sensitivity score [4] was 5 DSS, the drug sensitivity score [5] was 4.44 DSS and the drug sensitivity score [6] was 2.89 DSS. It also gave a drug sensitivity score [7] of 2.45 DSS, a drug sensitivity score [8] of 5.85 DSS and a drug sensitivity score [9] of 0 DSS.
`CN(Cc1cnc2nc(N)nc(N)c2n1)c1ccc(C(=O)N[C@@H](CCC(=O)O)C(=O)O)cc1` [Methotrexate] was tested, and the drug sensitivity score [1] was 12.8 DSS, the drug sensitivity score [2] was 15.1 DSS and the drug sensitivity score [3] was 12.2 DSS. It also gave a drug sensitivity score [4] of 18.8 DSS, a drug sensitivity score [5] of 8.04 DSS and a drug sensitivity score [6] of 21.2 DSS. For the same compound, the drug sensitivity score [7] was 15.8 DSS, the drug sensitivity score [8] was 1.4 DSS and the drug sensitivity score [9] was 0.233 DSS.
For `C[C@H]1C[C@@H]2[C@H]([C@@H](O)C[C@@]3(C)[C@H]2CC[C@]3(O)C(=O)CO)[C@@]2(C)C=CC(=O)C=C12` [Methylprednisolone], the drug sensitivity score [1] was 1.27 DSS, the drug sensitivity score [2] was 10.5 DSS and the drug sensitivity score [3] was 0 DSS. For the same compound, the drug sensitivity score [4] was 3.19 DSS, the drug sensitivity score [5] was 16 DSS and the drug sensitivity score [6] was 0.065 DSS. It also gave a drug sensitivity score [7] of 8.81 DSS, a drug sensitivity score [8] of 0 DSS and a drug sensitivity score [9] of 0.4 DSS.
`N#CCNC(=O)c1ccc(-c2ccnc(Nc3ccc(N4CCOCC4)cc3)n2)cc1` [Momelotinib] was tested, and the drug sensitivity score [1] was 13.9 DSS, the drug sensitivity score [2] was 18.9 DSS and the drug sensitivity score [3] was 10.1 DSS. The drug sensitivity score [4] was 10.8 DSS, the drug sensitivity score [5] was 15.9 DSS and the drug sensitivity score [6] was 8.25 DSS. The drug sensitivity score [7] was 8.12 DSS, the drug sensitivity score [8] was 24.2 DSS and the drug sensitivity score [9] was 12.4 DSS.
`CC1(C)CCC(c2ccc(Cl)cc2)=C(CN2CCN(c3ccc(C(=O)NS(=O)(=O)c4ccc(N[C@H](CCN5CCOCC5)CSc5ccccc5)c(S(=O)(=O)C(F)(F)F)c4)cc3)CC2)C1` [Navitoclax] gave a drug sensitivity score [1] of 39.8 DSS, a drug sensitivity score [2] of 25.9 DSS and a drug sensitivity score [3] of 14.2 DSS. It also gave a drug sensitivity score [4] of 27.6 DSS, a drug sensitivity score [5] of 22.4 DSS and a drug sensitivity score [6] of 39.1 DSS. The drug sensitivity score [7] was 23.3 DSS, the drug sensitivity score [8] was 0 DSS and the drug sensitivity score [9] was 0.5 DSS.
`COc1ncc(-c2ccc3nccc(-c4ccnnc4)c3c2)cc1NS(=O)(=O)c1ccc(F)cc1F` [Omipalisib] was tested, and the drug sensitivity score [1] was 6.45 DSS, the drug sensitivity score [2] was 9.27 DSS and the drug sensitivity score [3] was 11.6 DSS. The drug sensitivity score [4] was 12.1 DSS, the drug sensitivity score [5] was 11.3 DSS and the drug sensitivity score [6] was 5.15 DSS. It also gave a drug sensitivity score [7] of 10.9 DSS, a drug sensitivity score [8] of 5.9 DSS and a drug sensitivity score [9] of 8.15 DSS.
`COc1ccccc1S(=O)(=O)Nc1ccc2c(c1)CN(C)C(=O)N2` [PFI-1] gave a drug sensitivity score [1] of 1.7 DSS, a drug sensitivity score [2] of 7.25 DSS and a drug sensitivity score [3] of 0.03 DSS. It also gave a drug sensitivity score [4] of 6.22 DSS, a drug sensitivity score [5] of 4.02 DSS and a drug sensitivity score [6] of 4.16 DSS. It also gave a drug sensitivity score [7] of 3.24 DSS, a drug sensitivity score [8] of 6.65 DSS and a drug sensitivity score [9] of 0 DSS.
`CC(=O)c1c(C)c2cnc(Nc3ccc(N4CCNCC4)cn3)nc2n(C2CCCC2)c1=O` [Palbociclib] gave a drug sensitivity score [1] of 3.02 DSS, a drug sensitivity score [2] of 15.5 DSS and a drug sensitivity score [3] of 5.78 DSS. The drug sensitivity score [4] was 6.84 DSS, the drug sensitivity score [5] was 9.52 DSS and the drug sensitivity score [6] was 0 DSS. It also gave a drug sensitivity score [7] of 5.11 DSS, a drug sensitivity score [8] of 4.85 DSS and a drug sensitivity score [9] of 2.8 DSS.
In the case of `Cc1[nH]c2ccccc2c1CCNCc1ccc(/C=C/C(=O)NO)cc1` [Panobinostat], the drug sensitivity score [1] is reported as 21.9 DSS, the drug sensitivity score [2] is reported as 23.1 DSS and the drug sensitivity score [3] is reported as 21.8 DSS. The drug sensitivity score [4] was 23 DSS, the drug sensitivity score [5] was 24.2 DSS and the drug sensitivity score [6] was 21.9 DSS. It also gave a drug sensitivity score [7] of 18.8 DSS, a drug sensitivity score [8] of 3.75 DSS and a drug sensitivity score [9] of 4.7 DSS.
